Experiments:
HCoV 229E [1] = settings: BEAS2B cell
HCoV 229E [2] = assay: organism not typed; settings: BEAS-2B, read-out: EC50 HCoV229E
SARS-CoV-2 3CL^pro [3] = biological target: T1, SARS-CoV-2 3CL^pro (Severe acute respiratory syndrome coronavirus 2, UniProt P0DTD1); format: biochemical
SARS-CoV-2 3CL^pro [4] = biological target: T1, SARS-CoV-2 3CL^pro; format: biochemical; remark: listed apart in the source

Structure (SMILES) | SI (CC50/EC50) MERS (MERS-CoV) | SI (CC50/EC50) HCoV229E (HCoV 229E [1]) | EC50 (HCoV 229E [2]) [µM] | improvement in antiviral potency when co-dosed with CP-100356 (SARS-CoV-2) | SARS-CoV-2 3CL^pro enzyme inhibition at fixed concentration (SARS-CoV-2 3CL^pro [4]) | other results
CO[C@H]1C[C@@H](C(=O)N[C@H](C=O)C[C@@H]2CCNC2=O)N(C(=O)[C@@H](NC(=O)OC(C)(C)C)C(C)C)C1 [Compound 8, tert-Butyl ((S)-1-((2S,4S)-4-methoxy-2-(((S)-1-oxo-3-((S)-2-oxopyrrolidin-3-yl)propan-2-yl)carbamoyl)pyrrolidin-1-yl)-3-methyl-1-oxobutan-2-yl)carbamate] | 0.58 ± 0.34 (>172) | < 10 | > 3.6 | – | – | increase in potency on MERS respect to SARS-CoV-2 in the CPE cellular assay (MERS-CoV): 15 fold
CC(C)[C@H](NC(=O)OC(C)(C)C)C(=O)N1CCCC[C@H]1C(=O)N[C@H](C=O)C[C@@H]1CCNC1=O [Compound 13, tert-Butyl ((S)-3-methyl-1-oxo-1-((S)-2-(((S)-1-oxo-3-((S)-2-oxopyrrolidin-3-yl)propan-2-yl)carbamoyl)piperidin-1-yl)butan-2-yl)carbamate] | – | – | – | more than 3 fold | – | –
CC(C)[C@H](NC(=O)OC(C)(C)C)C(=O)N1C[C@@H]2CCC[C@@H]2[C@H]1C(=O)N[C@H](C=O)C[C@@H]1CCNC1=O [Compound 12, tert-Butyl ((S)-3-methyl-1-oxo-1-((1S,3aR,6aS)-1-(((S)-1-oxo-3-((S)-2-oxopyrrolidin-3-yl)propan-2-yl)carbamoyl)hexahydrocyclopenta[c]pyrrol-2(1H)-yl)butan-2-yl)carbamate] | – | – | – | – | – | mechanism of action from enzymatic progression curve (SARS-CoV-2 3CL^pro [3]): slow covalent binding inhibitor; lower activity against MERS compared to SARS-CoV-2 (MERS-CoV): 20 fold; cytotoxicity in Calu-3 cells (Calu-3 cells): without sign of cytotoxicity
CC(C)[C@H](NC(=O)OC(C)(C)C)C(=O)N1C[C@H](OC(C)(C)C)C[C@H]1C(=O)N[C@H](C=O)C[C@@H]1CCNC1=O [Compound 11, tert-Butyl ((S)-1-((2S,4R)-4-(tert-butoxy)-2-(((S)-1-oxo-3-((S)-2-oxopyrrolidin-3-yl)propan-2-yl)carbamoyl)pyrrolidin-1-yl)-3-methyl-1-oxobutan-2-yl)carbamate] | 33.56 ± 6.8 (>3) | < 10 | > 48.2 | more than 3 fold | – | –
C[C@H](OC(C)(C)C)[C@H](NC(=O)OC(C)(C)C)C(=O)N1CCC[C@H]1C(=O)N[C@H](C=O)C[C@@H]1CCNC1=O [Compound 14, tert-Butyl ((2S,3S)-3-(tert-butoxy)-1-oxo-1-((S)-2-(((S)-1-oxo-3-((S)-2-oxopyrrolidin-3-yl)propan-2-yl)carbamoyl)pyrrolidin-1-yl)butan-2-yl)carbamate] | – | – | – | more than 3 fold | – | –
CC(C)C[C@H](NC(=O)[C@@H](NC(=O)OC(C)(C)C)C(C)C)C(=O)N[C@H](C=O)C[C@@H]1CCNC1=O [Compound 5, tert-Butyl ((S)-3-methyl-1-(((S)-4-methyl-1-oxo-1-(((S)-1-oxo-3-((S)-2-oxopyrrolidin-3-yl)propan-2-yl)amino)pentan-2-yl)amino)-1-oxobutan-2-yl)carbamate] | 1.58 ± 0.91 (>63) | > 30.1 | – | more than 3 fold | – | –
CC(C)[C@H](NC(=O)OC(C)(C)C)C(=O)N1CCC[C@H]1C(=O)N[C@H](CO)C[C@@H]1CCNC1=O [Compound 27g, tert-Butyl ((S)-1-((S)-2-(((S)-1-hydroxy-3-((S)-2-oxopyrrolidin-3-yl)propan-2-yl)carbamoyl)pyrrolidin-1-yl)-3-methyl-1-oxobutan-2-yl)carbamate] | – | – | – | – | inactive | –
CC(C)[C@H](NC(=O)OC(C)(C)C)C(=O)N1CCC[C@H]1C(=O)N[C@H](C=O)C[C@@H]1CCNC1=O [Compound 6, tert-Butyl ((S)-3-methyl-1-oxo-1-((S)-2-(((S)-1-oxo-3-((S)-2-oxopyrrolidin-3-yl)propan-2-yl)carbamoyl)pyrrolidin-1-yl)butan-2-yl)carbamate] | 4.56 ± 1.39 (>22) | < 10 | > 17.9 | – | – | –
COC(=O)[C@H](C[C@@H]1CCNC1=O)NC(=O)[C@@H]1CCCN1C(=O)[C@@H](NC(=O)OC(C)(C)C)C(C)C [Compound 25g, Methyl (S)-2-((S)-1-((tert-butoxycarbonyl)-L-valyl)pyrrolidine-2-carboxamido)-3-((S)-2-oxopyrrolidin-3-yl)propanoate] | – | – | – | – | inactive | –
CC(C)[C@H](NC(=O)OC(C)(C)C)C(=O)N1CCC[C@H]1C(=O)N[C@@H](C[C@@H]1CCNC1=O)C(=O)O [Compound 26, (S)-2-((S)-1-((tert-butoxycarbonyl)-L-valyl)pyrrolidine-2-carboxamido)-3-((S)-2-oxopyrrolidin-3-yl)propanoic acid] | – | – | – | – | inactive | –

From paper PMC10068823 (European Journal of Medicinal Chemistry, 2023)
